Results: US20200172489A1, “FLUORESCENT COMPOUND AND AUTOPHAGY DETECTION REAGENT USING SAME” (DOJINDO LABORATORIES, priority 2017, published 2020)
Where a name gives a salt, the structure may show the parent alone.

Key:
[1] = tested on: HeLa cells; assay: Autophagy detection test (1): fluorescent microscopy of HeLa cells after introducing the compound, with autophagy induced or inhibited; assay type: cell-based; conditions: for fluorescent intensity in HeLa cells in the presence of Bafilomycin: Bafilomycin (0.1 μM bafilomycin A1), autophagy hardly occurs; for fluorescent intensity in HeLa cells in the presence of Bafilomycin / fluorescent intensity in HeLa cells, control group / fluorescent intensity in HeLa cells under starvation condition / change of fluorescent intensity in HeLa cells when bafilomycin was added under starvation condition: FIG. 7; for fluorescent intensity in HeLa cells, control group: Control (autophagy hardly occurs); for fluorescent intensity in HeLa cells under starvation condition: Starved; for change of fluorescent intensity in HeLa cells when bafilomycin was added under starvation condition: starvation plus bafilomycin
Description: HeLa cells were seeded on a μ-slide 8 well (Ibidi) and incubated in a CO2 incubator at 37° C. overnight. Compound 4b (1 μM) or Compound 6h (0.1 μM) diluted with serum medium was added and incubated for 30 minutes. After washing twice with serum medium, the cells were incubated at 37° C. for 6 hours or 20 hours in an amino acid-free medium of serum containing-medium and observed with a fluorescent microscope. As an autophagy inducing agent, 0.5 μM Rapamycin was used and as an autophagy inhibiting agent, 10 μM chloroquine and 0.1 μM bafilomycin A1 were used.

[2] = tested on: HeLa cells; assay: Autophagy detection test (3): co-staining of HeLa cells with Compound 6h and Compound 11, fluorescent microscopy; assay type: cell-based; conditions: Compound 6h 1 μM and Compound 11 0.1 μM; 3 hours or 6 hours; FIG. 11
Description: (§1) HeLa cells were seeded on a μ-slide 8 well (Ibidi) and incubated in a CO2 incubator at 37° C. overnight. Compound 6h (1 μM) and Compound 11 (0.1 μM) diluted with serum medium was added and incubated for 30 minutes. After washing twice with serum medium, the cells were incubated at 37° C. for 3 hours or 6 hours in an amino acid-free medium of serum containing-medium and observed with a fluorescent microscope.

[3] = pH dependence of fluorescent intensity of the fluorescent compounds; assay type: physicochemical; conditions: for pH dependence of fluorescent intensity: FIG. 6
[4] = tested on: HeLa cells; assay: Autophagy detection test (2): fluorescent microscopy of HeLa cells under starvation condition; assay type: cell-based; conditions: 0.1 μM; Starve vs Control; incubated 5 hours; FIG. 10
Description: as §1, with “diluted with a serum medium” for “(1 μM) and Compound 11”, “μM)” for “μM) diluted with serum medium”, “5” for “3 hours or 6”

[5] = tested on: HeLa cells; assay: Autophagy detection test (4): staining of HeLa cells with Compound 4b and Compound 13, fluorescent microscopy; assay type: cell-based; conditions: Compound 4b 1 μM and Compound 13 0.1 μM; 3 hours or 6 hours; FIG. 12
Description: as §1, with “Compound 4b” for “Compound 6h”, “μM) or” for “μM) and”, “Compound 13” for “Compound 11”

[6] = tested on: HeLa cells; assay: Autophagy detection test (1): evaluation using flow cytometry; assay type: cell-based; conditions: 1 μM; starvation condition, 6 hours and 20 hours; FIG. 3
Description: HeLa cells were seeded on a 24 well plate and incubated in a CO2 incubator at 37° C. overnight, 1 μM of Compound 4b diluted with serum medium was added and incubated for 30 minutes. After washing twice with the serum-free medium, a medium free from amino acid and serum was added and the cells were incubated at 37° C. for 6 hours or 20 hours. Cell were washed with PBS once, peeled with 0.25% trypsin-EDTA and used for flow cytometric analysis.

Row | SMILES | fluorescent intensity in HeLa cells in the presence of Bafilomycin [1] | fluorescent intensity in HeLa cells, control group [1] | shape of fluorescent emission in high-magnification fluorescent microscopic images ([1]; HeLa cells, autophagy induced, FIG. 8, A-1 and A-2) | fluorescent intensity in HeLa cells under starvation condition ([1]; autophagy induced) | change of fluorescent intensity in HeLa cells when bafilomycin was added under starvation condition [1] | staining pattern in HeLa cells under starvation condition, two compounds introduced together [2] | pH dependence of fluorescent intensity [3] | fluorescent intensity in HeLa cells under starvation condition [4] | staining pattern in HeLa cells under starvation condition, two compounds introduced together [5] | fluorescent intensity in HeLa cells, autophagy induced by adding Rapamycin ([1]; Rapamycin & Chloroquine group vs Control, 0.5 μM Rapamycin, 10 μM chloroquine, incubated 6 hours and 20 hours, FIG. 2) | fluorescent intensity in HeLa cells, autophagy induced by starvation culture ([1]; Starved group vs Control, incubated 6 hours and 20 hours, FIG. 2) | usefulness for detecting autophagy by flow cytometry [6] | pH (acidic condition) under which the fluorescent intensity increases ([3]; FIG. 1 / FIG. 9)
1 | CCCCCN1C(=O)c2cccc3c(NCCCCCN)ccc(c23)C1=O [Compound 6h, hydrochloride salt] | low | low | ring-shaped fluorescent emission | high | did not decrease | granular points stained only by Compound 6h and granular points co-stained by Compound 6h and Compound 11 | no pH dependence | enhancement of the fluorescent intensity was observed |  |  |  |  | 
2 | CCCCCN1C(=O)c2ccc3c4cccc5c(NCCCCCN)ccc(c6ccc(c2c36)C1=O)c54 [Compound 13, 5-((1,3-dioxo-2-pentyl-2,3-dihydro-1H-benzo[10,5]anthra[2,1,9-def]isoquinolin-8-yl)amino)pentane-1-amine hydrochloric salt] |  |  |  |  |  |  | no pH dependence |  | granular points co-stained by Compound 4b and Compound 13 |  |  |  | 
3 | CCCCCN1C(=O)c2cccc3c(N4CCN(CCN)CC4)ccc(c23)C1=O [Compound 4b, 2-(4-(1,3-dioxo-2-pentyl-2,3-dihydro-1H-benzo[de]isoquinolin-6-yl)piperazin-1-yl)ethane-1-amine hydrochloride salt] | low | low |  | high | decreased |  |  |  | granular points stained only by Compound 4b and granular points co-stained by Compound 4b and Compound 13 | enhancement of the fluorescent intensities was observed | enhancement of the fluorescent intensities was observed | useful for detecting autophagy using not only fluorescent microscopy but also flow cytometry | 
4 | CCCCCN1C(=O)c2ccc3c4cccc5c(N6CCN(CCN)CC6)ccc(c6ccc(c2c36)C1=O)c54 [Compound 11, 8-(4-(2-aminoethyl)piperazin-1-yl)-2-pentyl-1H-benzo[10,5]anthra[2,1,9-def]isoquinolin-1,3(2H)-dione] |  |  |  |  |  | granular points co-stained by Compound 6h and Compound 11 |  |  |  |  |  |  | ≤ 6
